In this experiment the test system is Clone20-Shn3RL cells, Renilla luciferase luminescence, 24 h. Description: non-specific 3'UTR reporter inhibition in Clone20-Shn3RL – cell-based, Renilla luciferase, cherry-picked, counter-screen for Shn3 inhibitor project, dose response (AID 624133). Background: A counterscreen serves to expose hits that act by an unwanted route or on another target.

Values joined by “and” are separate entries in the source; they are usually repeats but may differ in a detail not shown here. Identical values can stand only once.

As a reminder, the AC50 is the midpoint of the concentration-response curve, whichever way the signal moves. On to `CC(=O)OC[C@]12CCC(C)=C[C@H]1O[C@@H]1[C@H](O)[C@@H](OC(C)=O)[C@@]2(C)[C@]12CO2`, for which the AC50 was less than 0.26 µM.
The same measure for `CC1=CC2OC3CC4OC(=O)C=CC=CC(C(C)O)OCC(O)C5(C)OC5C(=O)OCC2(CC1O)C4(C)C31CO1` (centres undefined): less than 0.26 µM; for `CC(=O)OC1CC2OC3C=C(C)CCC3(C)C1(C)C21CO1` (centres undefined): 3.25 µM.
For `CC(=O)OCC12CC(OC(=O)CC(C)C)C(C)=CC1OC1C(O)C(OC(C)=O)C2(C)C12CO2` (centres undefined), the AC50 is less than 0.26 µM.
Take `CC1=CC2OC3CC4OC(=O)C=CC=CC(=O)OCCC(C)C(O)C(=O)OCC2(CC1O)C4(C)C31CO1` (centres undefined): the AC50 is 4.79 µM.
Regarding `CC1=CC2OC3CC4OC(=O)C=CC=CC(C(C)O)OCC(O)C(C)CC(=O)OCC2(CC1O)C4(C)C31CO1` (centres undefined), the AC50 is less than 0.26 µM.
For the compound `CC(=O)OC1C(=O)OCC23CCC4(C)OC4C2OC2CC(OC(=O)C=CC=CC(=O)OCCC1C)C3(C)C21CO1` (centres undefined), the AC50 is less than 0.26 µM.
With `CCN1CCN(Cc2ccc(NC(=O)c3cc(NC(=O)c4cc5cccc(OC)c5o4)cc(OC)c3)cc2C(F)(F)F)CC1`, the AC50 was 25.1 µM and 9.12 µM.
Regarding `C[C@H]1[C@@H](OS(=O)(=O)O)C[C@@H]2C[C@H]([C@@H](O)c3cc(=O)[nH]c(=O)[nH]3)NC3=NC[C@H]1N32`, the AC50 is 3.1 µM.

The record behind these values is PubChem BioAssay AID624133 (Broad Institute, 2012).
